Results taken from patent US20100278837A1, “Compositions And Methods For Reducing Cancer And Inflammation” (The Regents of the University of California, priority 2009, published 2010).

Columns and labels:
[1] = test system: LLC tumours; assay: Subcutaneous LLC tumour growth, inflammation and angiogenesis in treated mice; type: in vivo, C57BL/6 mice; settings: daily dosing
Protocol: LLC cells were obtained from the American Type Culture Collection (ATCC) and Panc02 pancreatic ductal carcinoma cells were obtained from the NCI DCTDC Tumour Repository. The abdominal cavities of immunocompetent C57Bl6 mice and integrin α4Y991A knockin mice^30 were opened and the tails of the pancreas were exteriorized. One million Panc02 cells were injected into the pancreatic tail, the pancreas was placed back into the abdominal cavity and the incision was closed. Tumours were excised after 30 days. 5×10^5 LLC cells were injected subcutaneously or by intravenous tail vein injection into C57Bl6 or integrin α4Y991A mice. Tumours were excised at 7, 14 or 21 days, cryopreserved in O.C.T., lysed for RNA purification or collagenase-digested for flow cytometric analysis of CD11b and Gr1 expression. […] Tumours were harvested, weighed and further analyzed on day 8. […]
PI3-kinase γ inhibitor studies: C57BL/6 mice were subcutaneously implanted on d1 with 5×10^5 LLC or by intradermal injection with 5×10^5 B16 melanoma cells. […] Tumour volumes, weights and blood vessel densities, as well as myeloid cell densities were measured. […] Tumours were excised, weighed and analyzed after 3 weeks. […] Mice were sacrificed at 9 weeks of age and tumours were analyzed.

[2] = test system: CD11b+ myeloid cells; assay: Adoptive transfer: arrest of pretreated CD11b+ myeloid cells in LLC tumours; type: in vivo; settings: adoptively transferred into LLC tumour-bearing mice
Protocol: Alternatively, 5×10^6 CFSE labelled CD11b+ cells from C57BL/6, α4Y991A, and PI3-kinase γ−/− mice were injected intravenously into mice bearing subcutaneous (5×10^5) d14 LLC tumours. In other studies, CD11b+ cells from WT mice were treated for 1 h with 1 μM PI3-kinase α inhibitor (PI3K75), PI3-kinase β inhibitor (TGX221), PI3-kinase γ inhibitor (TG100-115) and an inert control or with 10 μM PLC inhibitor (U73122), geranylgeranyltransferase inhibitor (GGT2147) or farnesyltransferase inhibitor (FTI-277) and then injected intravenously into mice bearing subcutaneous (5×10^5) d14 LLC tumours.
In other studies, K, N and H Ras, Rap1, PI3Kα, PI3Kβ, PI3Kγ, PI3Kδ, integrin α4 and integrin αM were knocked down by siRNA transfection of CD11b+ cells as described above. 48 h later, cells were labeled with CFSE and injected into mice with d14 LLC tumours (1×10^6 cells). Fluorescent cells accumulating in tumours and spleens were quantified 2 h and 24 h later by excising tissues, preparing single cell suspensions and performing FACs analysis at 488 nm. No differences were observed between untreated and non-silencing siRNA treated cells.

[3] = test system: CD11b+ myeloid cell adhesion to VCAM-1; assay: Chemoattractant-stimulated CD11b+ myeloid cell adhesion to VCAM-1 / endothelial cells (Example 9 adhesion assay); type: cell-based, mouse
Protocol: 1×10^5 calcein-AM labelled human CD11b+ cells isolated from buffy coats from the San Diego Blood Bank or murine CD11b+ cells isolated from naïve (non-tumour bearing) or tumour-bearing mice were incubated on HUVEC monolayers or on plastic plates coated with 5 μg/ml recombinant soluble VCAM-1 or ICAM-1 (R&D Systems) for 30 minutes at 37° C. with humidity in the presence of LLC Tumour Conditioned Medium (TCM) or DMEM containing 200 ng/ml SDF1α, IL1β, IL6, TNFα or VEGF-A (R&D Systems). (SDF-1α and IL-1β were initially titrated to determine the minimum dose required to achieve near maximal stimulation of adhesion). TCM was prepared by incubating LLC cells in serum-free media for 18 h and filtering through 0.22 μm filters. After washing three times with warmed medium, adherent cells were quantified using a plate fluorimeter (GeniosPro, TECAN).
In some adhesion assays, cells were also incubated in 25 μg/ml function-blocking anti-integrin α4β1 (rat anti-murine, PS2 or mouse anti-human, HP2/1, gifts from Biogen-Idec), rat-anti-αM (anti-CD11b, M1/70) and isotype control antibodies (rat IgG2κ or mouse IgG1) or with 0.1 nM-10 μM doses of the small molecule inhibitor of integrin α4, ELN476063 (IC50=10 nM), a gift from Elan^14.
Additionally, labelled cells were incubated with HUVEC and rsVCAM coated plates in the presence of […] or SDF-1α and 1-10 μM inhibitors: pan-PI3 kinase inhibitors ([…], wortmannin), PI3-kinase α inhibitors (PI3K75, PIK2alpha, PI103), PI3-kinase β inhibitor (TGX221), PI3-kinase γ inhibitors (TG100-115, AS605240, AS604850), inert control, PLC inhibitor (U73122), geranylgeranyltransferase (Rap1-selective) inhibitors (GGTI-2147 and GGTI-298) or farnesyltransferase (Ras-selective) inhibitor (FTI-277), Akt inhibitors (Inhibitor X and peptide 18), mTOR inhibitor (rapamycin), ROCK inhibitor (Y27632), MEK inhibitor (PD98059), p38 inhibitor (SB202190), tyrosine kinase inhibitor (genestein) and PKA inhibitors (H89, KT5720). LY294002, wortmannin, genestein, U73122, GGTI-2147, GGTI-298, FTI-277, Y27632, PD98059, SB202190, H89 and KT5720 were from Calbiochem. PIK2alpha, PI103, AS605240, AS604850 and TGX221 were from Echelon. TG100-115 was prepared as described^25-26. To titrate the effect of various signalling protein inhibitors on myeloid cell adhesion stimulated by IL-1β or SDF-1α, cells were incubated in 1 nm to 100 μM PI3-kinase inhibitors TG00020 (a pan-PI3-kinase inhibitor), PI3-kinase α inhibitor (PI3Kalpha2) PI3-kinase β inhibitor (TGX221), PI3-kinase γ inhibitors (TG100-115, AS605240), an inert chemically matched control, farnesyltrasnferase inhibitors and geranylgeranyltransferase inhibitors. IC50s for GGTI and FTI were 1 μM. […] Adherent GFP+ cells were automatically quantified using MetaMorph software (Molecular Devices Software).

Row | Compound | LLC tumour growth [1] | myeloid cell arrest in tumours in vivo [2] | adhesion, ligand binding and integrin conformational changes ([3]; chemokine-stimulated myeloid cells) | IC50 ([3]; stimulated by IL-1β or SDF-1α, read-out: IC50, myeloid cell adhesion) [nM]
1 | O=C1NC(=O)/C(=C\c2ccc3nccnc3c2)S1 [AS605240] | suppressed tumour growth at similar doses | – | – | –
2 | COC(=O)[C@H](CCSC)NC(=O)c1ccc(NC[C@@H](N)CS)cc1-c1ccccc1 [FTI] | – | suppressed myeloid cell arrest in tumours in vivo | blocked adhesion, ligand binding and integrin conformational changes | 1000
